Measurements as given in patent US6596878B2, “Methods and compositions for inhibiting cell proliferative disorders” (Yissum Research & Development Company of the Hebrew …, priority 1994, dated 2003).
Where “and” joins values, the source holds several entries; their conditions need not be identical. Equal values may be shown once. Read-outs that look alike come from different tables or passages of the source.

What was measured:
[1] = molecular target: T1, human EGF receptor (Homo sapiens, UniProt P00533); test: EGF-receptor whole cell kinase assay (EGFR-3T3); assay type: cell-based
T1 construct: expressed in transfected cells; host or cells: NIH3T3 clone C7 (EGFR/C7; mouse fibroblasts)
Procedure: (§1) The following target cells were used for cellular kinaseassays: NIH3T3 clone C7 (Honegger et al., supra) engineered to over-express human EGF receptor; NIH3T3 cells engineered to over-express a chimeric receptor containing the EGFR extracellular domain and the HER2 intracellular kinase domain; the human mammary carcinoma line BT474 (ATCC HTB2) expressing HER2; and the human glioblastoma line U1242 that expresses PDGFR-β. Growth assays were carried out using human mammary epithelial SKBR3 (ATCC HTB30) cells, SKOV3 (ATCC HTB77) human ovarian cancer cell line, A431 cells, MCF7 human breast carcinoma cells, MCF7 cells overexpress the HER2 kinase (MCF7-HER2), NIH3T3 cells, and NIH3T3 cells overexpressing the HER2 kinase (3T3-HER2).
Unless otherwise stated the effect of various compounds on receptor tyrosine kinases were assayed as described in this section.
1. EGF-receptor Whole Cell Kinase Assay
EGFR kinase activity (EGFR-3T3 assay) in whole cells was measured as described below:
The following protocol was used:
A. Coat ELISA plates (Corning, 96 well, Cat. #25805-96) with 05-101 antibody at 0.5 μg per well in PBS, 150 μl final volume/well, and store overnight at 4° C. Coated plates are good for up to 10 days when stored at 4° C.
B. On day of use, remove coating buffer and replace with blocking buffer (5% Carnation Instant Non-Fat Dry Milk in PBS). Incubate the plate, shaking, at room temperature (about 23° C. to 25° C.) for 30 minutes. Just prior to use, remove blocking buffer and wash plate 4 times with TBST buffer.
A. EGFR/C7 cell line (Honegger, et al., Cell 51:199-209, 1987) can be use for this assay.
B. Choose dishes having 80-90% confluence for the experiment. Trypsinize cells and stop reaction by adding 10% CS DMEM medium. Suspend cells in DMEM medium (10% CS DMEM medium) and centrifuge once at 1000 rpm, and once at room temperature for 5 minutes.
C. Resuspend cells in seeding medium (DMEM, 0.5% bovine serum), and count the cells using trypan blue. Viability above 90% is acceptable. Seed cells in DMEM medium (0.5% bovine serum) at a density of 10,000 cells per well, 100 μl per well, in a 96 well microtiter plate. Incubate seeded cells in 5% CO2 at 37° C. for about 40 hours.
A. Check seeded cells for contamination using an inverted microscope. Dilute drug stock (10 mg/ml in DMSO) 1:10 in DMEM medium, then transfer 5 μl to a test well for a final drug dilution of 1:200 and a final DMSO concentration of […]. Control wells receive DMSO alone. Incubate in 5% CO2 at 37° C. for one hour.
B. Prepare EGF ligand: dilute stock EGF in DMEM so that upon transfer of 10 μl dilute EGF (1:12 dilution), 25 nM final concentration is attained.
C. Prepare fresh HNTG* sufficient for 100 μl per well; and place on ice.
D. After two hours incubation with drug, add prepared EGF ligand to cells, 10 μl per well, to yield a final concentration of 25 nM. Control wells receive DMEM alone. Incubate, shaking, at room temperature, for 5 minutes.
E. Remove drug, EGF, and DMEM. Wash cells twice with PBS. Transfer HNTG* to cells, 100 μl per well. Place on ice for 5 minutes. Meanwhile, remove blocking buffer from other ELISA plate and wash with TBST as described above.
F. With a pipette tip securely fitted to a micropipettor, scrape cells from plate and homogenize cell material by repeatedly aspirating and dispensing the HNTG* lysis buffer. Transfer lysate to a coated, blocked, and washed ELISA plate. Incubate shaking at room temperature for one hour.
G. Remove lysate and wash 4 times with TBST. Transfer freshly diluted anti-Ptyr antibody to ELISA plate at 100 μl per well. Incubate shaking at room temperature for 30 minutes in the presence of the anti-Ptyr antiserum (1:3000 dilution in TBST).
H. Remove the anti-Ptyr antibody and wash 4 times with TBST. Transfer the freshly diluted TAGO anti-rabbit IgG antibody to the ELISA plate at 100 μl per well.

[2] = test system: MCF7 cells overexpress the HER2 kinase (MCF7-HER2); test: MCF-7/HER-2 SRB growth assay; assay type: cell-based, human; settings: Table VI, 0.5% FBS, four days
Excerpt: as §1, with “This example illustrates the ability of the exemplary compounds to inhibit receptor tyrosine kinases, such as HER2 and/or EGFR. The” for “The”
MCF-7 cells are seeded at 2000 cells/ well in a 96-well flat bottom plate in normal growth media, which was 10% FBS/RPMI supplemented with 2 mM Glutamine. The plate of cells is incubated for about 24 hours at 37° C. after which it receives an equal volume of compound dilution per well making the total volume per well 200 μl. The compound is prepared at 2 times the desired highest final concentration and serially diluted in the normal growth media in a 96-well round bottom plate and then transferred to plate of cells. DMSO serves as the vector control up to 0.2% as final concentration. The cells are then incubated at 37° C. in a humidified 5% CO2 incubator.
Four days following dosing of compound, the media is discarded and 200 μl/well of ice-cold 10% TCA (Trichloroacetic Acid) is added to fix cells. After 60 minutes at 4° C., the TCA is discarded and the plate is rinsed 5 times with water. The plate is then air-dried and 100 μl/well of 0.4% SRB (Sulforhodamine B from Sigma) in 1% Acetic Acid is added to stain cells for 10 minutes at room temperature. The SRB is discarded and the plate is rinsed 5 times with 1% Acetic Acid. After the plate is completely dried, 100 μl/well of 10 mM Tris-base is added to solubilize the dye. After 5 to 10 minutes, the plate is read on a Dynatech ELISA Plate Reader at dual wavelengths at 570 nm and 630 nm.
8. MCF-7/HER-2 SRB Growth Assay
The protocol is basically the same as that above (for the MCF-7 Growth Assay) except that immediately before the compound is added, the normal growth media is removed and 0.5% FBS/RPMI supplemented with 2 mM Glutamine is added onto the cells. The compound is also prepared in this 0.5% serum media. The plate of cells is incubated for four days and developed as usual.

[3] = Table V, read-out: Estimated IC50 Cellular Kinase Assays EGFR (EGF-3T3)
[4] = Table VI, cellular kinase assay, read-out: EGFR-3T3

Row | IC50 [1, 3] | IC50 [1, 4] | IC50 ([2]; Homo sapiens, MCF7, 96 h) | Compound | IC50 [2]
1 | 40 µM | 21 µM | 0.2 µM | CC(C)(C)c1cc(/C=C(\C#N)C(N)=S)cc(C(C)(C)C)c1O [Compound M11] | –
2 | > 100 µM | > 100 µM | – | N#C/C(=C\c1ccc(O)c(O)c1)C(=S)NCc1ccccc1 [Compound M13] | –
3 | > 100 µM | > 100 µM | 6 µM | N#C/C(=C\c1ccc(O)c(O)c1)C(=O)Nc1cccc(C(F)(F)F)c1 [Compound M15] | –
4 | 4 µM and 4.4 µM | 9 µM | – | N#C/C(=C\c1cc(O)c(O)c(I)c1)C(=O)NCCCc1ccccc1 [Compound M16] | –
5 | – | > 100 µM | 0.6 µM | CC(C)(C)c1cc(/C=C(\C#N)C(=O)NCCCc2ccccc2)cc(C(C)(C)C)c1O [Compound M20, (E)-3-(3,5-di-t-Butyl-4-hydroxyphenyl)-2-[(3-phenyl-n-propyl)aminocarbonyl]acrylonitrile] | –
6 | – | > 100 µM | 2 µM | CC(C)c1cc(/C=C(\C#N)C(=O)NCCCc2ccccc2)cc(C(C)C)c1O [Compound M21, (E)-3-(3,5-Diisopropyl-4-hydroxyphenyl)-2-[(3-phenyl-n-propyl)aminocarbonyl]acrylonitrile] | –
7 | – | > 50 µM | 9 µM | CC(C)c1cc(C=C(C#N)C(N)=C(C#N)C#N)cc(C(C)C)c1O [Compound M22, (E)-2-(1-Amino-2,2-dicyanoethenyl-3-(3,5-diisopropyl-4-hydroxyphenyl)acrylonitrile)] | –
8 | – | > 50 µM | 1 µM | CC(C)c1cc(/C=C(\C#N)C(=S)NCCCc2ccccc2)cc(C(C)C)c1O [Compound M24, (E)-3-(3,5-Diisopropyl-4-hyrdroxyphenyl)-2-[(3-phenyl-n-propyl)aminothiocarbonyl]acrylonitrile] | –
9 | – | > 100 µM | – | CC(C)c1cc(/C=C(\C#N)S(=O)(=O)c2ccccn2)cc(C(C)C)c1O [Compound M26] | –
10 | – | > 50 µM | 6 µM | CC(C)c1cc(/C=C(\C#N)S(=O)(=O)CC#N)cc(C(C)C)c1O [Compound M27] | –
11 | – | > 50 µM | 2 µM | CC(C)c1cc(/C=C(\C#N)S(=O)(=O)/C(C#N)=C/c2cc(C(C)C)c(O)c(C(C)C)c2)cc(C(C)C)c1O [Compound M29] | –
12 | – | 61 µM | 2 µM | CC(C)c1cc(/C=C(\C#N)S(=O)(=O)c2ccccc2)cc(C(C)C)c1O [Compound M30] | –
13 | – | > 100 µM | – | Cc1cc(/C=C(\C#N)S(=O)(=O)c2ccccc2)cc(C)c1O [Compound M31] | –
14 | – | 64 µM | > 50 µM | Cc1cc(/C=C(\C#N)S(=O)(=O)c2ccccn2)cc(C)c1O [Compound M32] | –
15 | – | > 100 µM | 0.05 µM | CC(C)(C)c1cc(/C=C(\C#N)S(=O)(=O)c2ccccc2)cc(C(C)(C)C)c1O [Compound M33, (E)-3-(3,5-di-t-Butyl-4-hydroxyphenyl)-2-(phenylsulfonyl)acrylonitrile] | –
16 | – | > 100 µM | 0.06 µM | CC(C)(C)c1cc(/C=C(\C#N)S(=O)(=O)c2ccccn2)cc(C(C)(C)C)c1O [Compound M34, (E)-3-(3,5-di-t-Butyl-4-hydroxyphenyl)-2-[(pyrid-2-yl)sulfonyl]acrylonitrile] | –
17 | – | > 100 µM | 0.09 µM | CC(C)(C)c1cc(/C=C(\C#N)C(=O)Nc2ccc(C(F)(F)F)cc2)cc(C(C)(C)C)c1O [Compound M35, (E)-3-(3,5-di-t-Butyl-4-hydroxyphenyl)-2-[(4-trifluoromethyl)phenylaminocarbonyl]acrylonitrile] | –
18 | – | 56 µM | 2 µM | CC(C)(C)c1cc(/C=C(\C#N)S(=O)(=O)CC#N)cc(C(C)(C)C)c1O [Compound M36, (E)-3-(3,5-di-t-Butyl-4-hydroxyphenyl)-2-(cyanomethylsulfonyl)acrylonitrile] | –

Row | Compound | IC50 [1, 3] | IC50 [1, 4] | IC50 ([2]; Homo sapiens, MCF7, 96 h) | IC50 [2]
19 | (E,E)-2-[[-Cyano-2-(3,5-diisopropyl-4-hydroxyphenyl)ethenyl]sulfonyl]-3-(3,5-di-t-butyl-4-hydroxyphenyl)acrylonitrile [Compound M37] | – | > 100 µM | – | 1 µM
